{
  "source": "patent US11426422B2",
  "about": "“SHP2 inhibitors and methods of use thereof” (Research Development Foundation, priority 2018, dated 2022)",
  "key": {"[1]": {"test": "body weight of HFD-fed mice", "type": "in vivo", "conditions": "60 mg/kg daily oral gavage; 7 days post administration", "procedure": "FIGS. 8A-B. Effects of the SHP2 inhibitor on body weight and insulin signaling in HFD-WT mice. […] Mean±SD. (FIG. 8B) Quantification of the relative band intensities in FIG. 3E. Mean±SD; n=3 independent experiments.\nThe IR staining at the PM in liver sections from mice fed with HFD was weak, and insulin stimulation further reduced it and caused IR endocytosis (FIGS. 3C and D).\nAll animals were maintained in a specific antigen-free barrier facility with 12 h light/dark cycles (6 AM on and 6 PM off). Mice were fed a standard rodent chow (2016 Teklad Global 16% protein rodent diet, Harlan Laboratories). For inducing insulin resistance, C57BL/6J (Stock No. 000664, Jackson laboratory) were fed a high-fat (60%) diet (OpenSource Diets, Cat. No. D12492). For in vivo pharmacological assays, 6-8-weeks-old male mice were fed high-fat diet (HFD) for 5 weeks. Two days before drug administration, mice were switched to normal chow. […] For glucose tolerance test, mice were fasted for 14 h, and their blood glucose levels (T=0) were measured with tail bleeding using a glucometer (AlphaTRAK®). […] Blood glucose levels were measured at 15, 30, 60, and 120 min after glucose injection. For insulin tolerance test, mice fasted for 4 h were injected intraperitoneally with recombinant human insulin (Eli Lilly) at 1 U/kg body weight, and their blood glucose levels were measured at 0, 15, 30 and 60 min after injection."}, "[2]": {"tested_on": "HepG2 cells expressing IR-GFP mutants", "test": "cellular localization of IR-GFP mutants in HepG2 cells after inhibitors", "type": "cell-based", "conditions": "starved 14 h, inhibitors 4 h, no insulin", "description": "FIGS. 4A-E. Dysregulation of IR endocytosis as a potential contributing factor to human insulin resistance syndromes. (FIG. 4A) Representative images of liver specimens from human non-diabetes and diabetes patients stained with DAPI (blue) and anti-IR (red) and anti-ZO-1 (green) antibodies. Scale bars, 40 μm. (FIG. 4B) Quantification of the percentage of cells with positive IR PM signals in liver specimens in FIG. 4A (mean±SD; *p<0.0001). (FIG. 4C) HepG2 cells stably expressing IR-GFP R1020Q, V1054M, A1075D, V1086E, or I1143T were serum starved and stained with anti-GFP and anti-RAB7 antibodies. Scale bar, 5 μm. (FIG. 4D) Quantification of the ratios of PM and IC IR-GFP signals of cells in FIG. 4C (mean±SD; *p<0.0001). (FIG. 4E) Targeting feedback regulation of IR endocytosis for diabetes treatment. Left panel depicts the feedback regulation of IR endocytosis by ERK1/2 and SHP2 during unperturbed insulin signaling.\nFIGS. 9A-D. Characterization of IR mutations found in human patients. (FIG. 9A) HepG2 cells expressing IR-GFP Class I mutants (P997T, V1012M, A1055V, K1095E, R1119Q, H1157R, R1191Q, Y1361C, or R1378Q) were starved for 14 h, treated with the indicated inhibitors for 4 h, and stained with anti-GFP (IR; green) and DAPI (blue). Scale bar, 5 m. (FIG. 9B) HepG2 cells expressing IR-GFP Class II mutants (R1020Q, V1054M, A1075D, V1086E, or I1143T) were analyzed as described in FIG. 9A. (FIG. 9C) HepG2 cells expressing IR-GFP Class III mutants (A1162E or W1220L) were analyzed as described in A. (FIG. 9D) HepG2 cells expressing IR-GFP WT, R1020Q, or V1054M were serum starved for 14 h and treated with DMSO or 80 μM Dynasore for 4 h. Cell lysates were blotted with the indicated antibodies.\nMutations of IR are known to cause inherited severe insulin resistance syndromes, but the mechanisms by which these mutations affect IR function have not been systematically explored. HepG2 cell lines were generated which stably expressed IR mutants fused to GFP, and the subcellular localization of these IR-GFP proteins was examined (FIGS. 9A-C and Table 1).\nThere were three distinct classes of IR mutants based on their subcellular localization in the unstimulated state. Class I mutants localized to the PM. […] Thus, certain IR mutations found in human insulin resistance syndromes perturbs IR kinase regulation and causes premature IR endocytosis.\nCellular localization of IR mutants was examined after inhibiting the SHP2 or MAPK pathways (FIGS. 4C-D, and FIGS. 9A-C).\nIndirect immunofluorescence microscopy was performed on cells grown on coverslips and fixed in cold methanol at −20° C. for 10 min. The fixed cells were incubated with PBS for 30 min and 3% BSA in 0.1% PBST for 1 h, and then treated with diluted antibodies in 0.3% BSA in 0.1% PBST at 4° C. overnight. After being washed, cells were incubated with fluorescent secondary antibodies and mounted on microscope slides in ProLong Gold Antifade reagent with DAPI (Invitrogen). Images of fixed cells were acquired as a series of 0.4 m stacks with a DeltaVision® system (Applied Precision®, Issaquah, Wash.). Raw images were deconvolved using the iterative algorithm implemented in the softWoRx® software (Applied Precision®, Issaquash, Wash.). The central section of a 0.4 μm z-stack containing 3 contiguous focal planes was used for quantification. The cell edges were defined with Image J. The whole cell signal intensity (WC) and intracellular signal intensity (IC) were measured. The plasma membrane signal intensity (PM) was calculated by subtracting IC from WC. Identical exposure times and magnifications were used for all comparative analyses."}},
  "data": [
    {"smiles": "CC1(N)CCN(c2cnc(-c3cccc(Cl)c3Cl)c(N)n2)CC1", "note": "[SHP099]", "values": [
      {"measurement": "body weight", "setting": "[1]", "result": "did not change the body weight"},
      {"measurement": "PM levels of Class I and III IR mutants", "setting": "[2]", "result": "not those of Class I and III IR mutants"},
      {"measurement": "PM levels of Class II IR mutants", "setting": "[2]; R1020Q, V1054M, A1075D, V1086E, I1143T", "result": "significantly enhanced the PM levels of Class II IR mutants"}
    ]}
  ]
}
